Where two headings read alike, the source gives them in different places.
Tested on: Phytophthora infestans(Phytin)
Assay type: cell-based
Conditions: 7 days after inoculation

| SMILES | Observed efficacy (1 ppm) | Observed efficacy (4 ppm) |
| --- | --- | --- |
| O=C(NCCc1ncc(C(F)(F)F)cc1Cl)c1ccccc1C(F)(F)F [Fluopyram, fluopyram] | 10 |  |
| c1ccc(-c2noc(-c3cccs3)n2)cc1 [Tioxazafen, tioxazafen] |  | 7 |

— patent publication US20190159455A1 (priority 2016, published 2019)
